# Test results taken from US20240158446A1, “CYCLIC COMPOUND HAVING SELECTIVE INHIBITORY ACTION ON KRAS OVER HRAS AND NRAS” (CHUGAI SEIYAKU KABUSHIKI KAISHA, priority 2021, published 2024).
# Where two headings read alike, the source gives them in different places. *1 amine or outer side, *2 acyl side, *3 side chain or, on linkers, in order; H or OH if unused. Where a SMILES comes first, the peptide text is derived from it. Bridges are numbered along the chain shown (N, C = ends). [ ]: non-standard residue; d: D form. The star is where a group is joined. hPhe(3-Cl-4-CF3) = N[C@@H](CCc1ccc(C(F)(F)F)c(Cl)c1)C(=O)O; X52 = CCCN([C@@H](Cc1ccc(OC(F)(F)F)cc1)C(=O)[*:2])[*:1]; NPrPhe(4-CF3) = CCCN[C@@H](Cc1ccc(C(F)(F)F)cc1)C(=O)O; X15 = Cc1ccc(C[C@@H](C(=O)[*:2])N(CCC(C)C)[*:1])cc1; X42 = Cc1ccc(C[C@@H](C(=O)[*:2])N(CC2CCC2)[*:1])cc1; NMeGly(cPent) = CN[C@H](C(=O)O)C1CCCC1; Pro(4S-Me) = C[C@@H]1CN[C@H](C(=O)O)C1; Aze(3S-Me) = C[C@H]1CN[C@@H]1C(=O)O; Gly(cPent) = N[C@H](C(=O)O)C1CCCC1; cisHyp = O=C(O)[C@@H]1C[C@H](O)CN1; NMeD = CN[C@@H](CC(=O)O)C(=O)O; NMeL = CN[C@@H](CC(C)C)C(=O)O; Morpholide = C1CN(*)CCO1; NMeA = CN[C@@H](C)C(=O)O; Ac5c = NC1(C(=O)O)CCCC1; Aze = O=C(O)[C@@H]1CCN1; Ethyl(2,2-F2) = FC(F)C*; Ac3c = NC1(C(=O)O)CC1; Sar = CNCC(=O)O
# Tests used:
# [1] = biological target: GDP-bound KRAS wild-type protein (Homo sapiens, UniProt P01116); assay: Binding to KRAS by surface plasmon resonance (SPR), Single Cycle Kinetics; settings: GDP-bound KRAS wild-type protein, read-out: KRAS KD
# Chain of GDP-bound KRAS wild-type protein (P01116 whole entry): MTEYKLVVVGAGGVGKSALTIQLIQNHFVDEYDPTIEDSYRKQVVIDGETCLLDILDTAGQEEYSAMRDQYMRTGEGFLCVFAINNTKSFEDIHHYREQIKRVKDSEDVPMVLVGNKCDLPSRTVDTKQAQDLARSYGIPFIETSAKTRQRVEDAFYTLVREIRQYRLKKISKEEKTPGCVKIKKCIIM
# [2] = biological target: GDP-bound NRAS wild-type protein (Homo sapiens, UniProt P01111); assay: Binding to NRAS by surface plasmon resonance (SPR), Single Cycle Kinetics; settings: SPR, GDP-bound NRAS wild-type protein vs GDP-bound KRAS wild-type protein
# Chain of GDP-bound NRAS wild-type protein (P01111 whole entry): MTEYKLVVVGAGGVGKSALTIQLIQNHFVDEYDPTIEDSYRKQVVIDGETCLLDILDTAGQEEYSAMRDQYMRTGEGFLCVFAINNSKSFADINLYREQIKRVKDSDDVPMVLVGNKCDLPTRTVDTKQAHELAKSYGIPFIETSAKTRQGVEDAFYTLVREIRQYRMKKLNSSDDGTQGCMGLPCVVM
# [3] = biological target: GDP-bound HRAS wild-type protein (Homo sapiens, UniProt P01112); assay: Binding to HRAS by surface plasmon resonance (SPR), Single Cycle Kinetics
# Chain of GDP-bound HRAS wild-type protein (P01112 whole entry): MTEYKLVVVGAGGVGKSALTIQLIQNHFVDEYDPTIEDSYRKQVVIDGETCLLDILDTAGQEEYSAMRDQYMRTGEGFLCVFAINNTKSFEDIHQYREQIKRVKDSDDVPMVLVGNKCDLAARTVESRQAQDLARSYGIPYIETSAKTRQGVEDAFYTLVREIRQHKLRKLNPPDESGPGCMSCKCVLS
# [4] = SPR Single Cycle Kinetics, 1:1 binding model
# [5] = SPR, GDP-bound HRAS wild-type protein vs GDP-bound KRAS wild-type protein
# [6] = SPR, Single Cycle Kinetics, 1:1 binding model
Compound,"Kd [1, 4] [nM]",further results
CC[C@H](C)[C@@H]1NC(=O)[C@H](CC(C)C)N(C)C(=O)C[C@@H](C(=O)N(C)C)N(C)C(=O)[C@H](C2CCCC2)N(C)C(=O)C2(CCCC2)NC(=O)[C@@H]2CCCN2C(=O)[C@H](CCc2ccc(C(F)(F)F)c(Cl)c2)NC(=O)CN(C)C(=O)[C@H](Cc2ccc(C(F)(F)F)cc2)N2CC/C=C\COC[C@@H](C2=O)N(C)C(=O)CN(C)C1=O [PP0622],11,"NRAS/KRAS (ratio of KD value with respect to NRAS to KD value with respect to KRAS) [2]: B (a compound having 3 or more and less than 10 is denoted as B); HRAS/KRAS (ratio of KD value with respect to HRAS to KD value with respect to KRAS) [3, 5]: B (a compound having 3 or more and less than 10 is denoted as B)"
CCO[C@@H]1C[C@H]2C(=O)NC3(CCC3)C(=O)N(C)[C@@H](C(CC)CC)C(=O)N3CCC[C@@H]3CC(=O)N(C)[C@@H](CC)C(=O)N[C@@H]([C@@H](C)CC)C(=O)N(C)CC(=O)N(C)[C@H]3C/C=C\CCN(C3=O)[C@@H](Cc3ccc(C(F)(F)F)cc3)C(=O)N(C)CC(=O)N[C@@H](CCc3cc(F)c(C(F)(F)F)c(F)c3)C(=O)N2C1 [PP1607],,"Kd [1, 6]: 0.57 nM; HRAS/KRAS (ratio of KD value for HRAS to KD value for KRAS) ([3]; SPR, GDP-bound HRAS wild-type protein vs GDP-bound KRAS wild-type protein, KD ratio class): A (a compound having 10 or more and less than 20 is denoted as A)"
CCCN1C(=O)[C@@H]2CCN2C(=O)C2(CC2)NC(=O)[C@H]([C@@H](C)CC)NC(=O)[C@H](CC(C)C)N(C)C(=O)C[C@@H](C(=O)N2CCOCC2)N(C)C(=O)[C@H](C2CCCC2)N(C)C(=O)C2(CCCC2)NC(=O)[C@@H]2CCCN2C(=O)[C@H](CCc2ccc(C(F)(F)F)c(Cl)c2)NC(=O)CN(C)C(=O)[C@@H]1Cc1ccc(C(F)(F)F)cc1 [PP0276] ([NMeL]I[Ac3c][Aze][NPrPhe(4-CF3)][Sar][hPhe(3-Cl-4-CF3)]P[Ac5c][NMeGly(cPent)][NMeD]-Morpholide; lactam N-11),150,
"CCCN1C(=O)CN(C)C(=O)CN(C)C(=O)[C@H]([C@@H](C)CC)NC(=O)[C@H](CC(C)C)N(C)C(=O)C[C@@H](C(=O)N2CCOCC2)N(C)C(=O)[C@H](C2CCCC2)N(C)C(=O)C2(CCCC2)NC(=O)[C@@H]2C[C@H](OCC(F)F)CN2C(=O)[C@H](CCc2ccc(C(F)(F)F)c(Cl)c2)NC(=O)CN(C)C(=O)[C@@H]1Cc1ccc(C(F)(F)F)cc1 [PP0245] ([NMeL]I[Sar][Sar][NPrPhe(4-CF3)][Sar][hPhe(3-Cl-4-CF3)][cisHyp](Ethyl(2,2-F2))[Ac5c][NMeGly(cPent)][NMeD]-Morpholide; lactam N-11)",0.37,
CCCN1C(=O)CN(C)C(=O)CN(C)C(=O)[C@H]([C@@H](C)CC)NC(=O)[C@H](CC(C)C)N(C)C(=O)C[C@@H](C(=O)N2CCOCC2)N(C)C(=O)[C@H](C2CCCC2)N(C)C(=O)C2(CCCC2)NC(=O)[C@@H]2CCCN2C(=O)[C@H](CCc2ccc(C(F)(F)F)c(Cl)c2)NC(=O)CN(C)C(=O)[C@@H]1Cc1ccc(OC(F)(F)F)cc1 [PP0137] ([NMeL]I[Sar][Sar][X52][Sar][hPhe(3-Cl-4-CF3)]P[Ac5c][NMeGly(cPent)][NMeD]-Morpholide; lactam N-11),0.47,
CCCN1C(=O)[C@@H]2CCN2C(=O)[C@H](C)N(C)C(=O)[C@H]([C@@H](C)CC)NC(=O)[C@H](CC(C)C)N(C)C(=O)C[C@@H](C(=O)N2CCOCC2)N(C)C(=O)[C@H](C2CCCC2)N(C)C(=O)C2(CCCC2)NC(=O)[C@@H]2CCCN2C(=O)[C@H](CCc2ccc(C(F)(F)F)c(Cl)c2)NC(=O)CN(C)C(=O)[C@@H]1Cc1ccc(OC(F)(F)F)cc1 [PP0136] ([NMeL]I[NMeA][Aze][X52][Sar][hPhe(3-Cl-4-CF3)]P[Ac5c][NMeGly(cPent)][NMeD]-Morpholide; lactam N-11),1.3,
CCO[C@@H]1C[C@H]2C(=O)NC3(CCC3)C(=O)N(C)[C@@H](C(CC)CC)C(=O)N(C)[C@H](C)CC(=O)N(C)[C@@H](CC3CCCC3)C(=O)N[C@@H]([C@@H](C)CC)C(=O)N(C)CC(=O)N(C)[C@H]3C/C=C\CCN(C3=O)[C@@H](Cc3ccc(F)cc3)C(=O)N(C)CC(=O)N[C@@H](CCc3cc(F)c(C(F)(F)F)c(F)c3)C(=O)N2C1 [PP1523],,"Kd [1, 6]: 4.1 nM"
CCCN1C(=O)[C@@H]2CCN2C(=O)[C@H](C)N(C)C(=O)[C@H]([C@@H](C)CC)NC(=O)[C@H](CC(C)C)N(C)C(=O)C[C@@H](C(=O)N2CCOCC2)N(C)C(=O)[C@H](C2CCCC2)N(C)C(=O)C2(CCCC2)NC(=O)[C@@H]2C[C@H](C)CN2C(=O)[C@H](CCc2ccc(C(F)(F)F)c(Cl)c2)NC(=O)CN(C)C(=O)[C@@H]1Cc1ccc(C(F)(F)F)cc1 [PP0455] ([NMeL]I[NMeA][Aze][NPrPhe(4-CF3)][Sar][hPhe(3-Cl-4-CF3)][Pro(4S-Me)][Ac5c][NMeGly(cPent)][NMeD]-Morpholide; lactam N-11),0.18,
CCCN1C(=O)CN(C)C(=O)CN(C)C(=O)[C@H](C2CCCC2)NC(=O)[C@H](CC(C)C)N(C)C(=O)C[C@@H](C(=O)N2CCOCC2)N(C)C(=O)[C@H](C2CCCC2)N(C)C(=O)C2(CCCC2)NC(=O)[C@@H]2CCCN2C(=O)[C@H](CCc2ccc(C(F)(F)F)c(Cl)c2)NC(=O)CN(C)C(=O)[C@@H]1Cc1ccc(C(F)(F)F)cc1 [PP0251] ([NMeL][Gly(cPent)][Sar][Sar][NPrPhe(4-CF3)][Sar][hPhe(3-Cl-4-CF3)]P[Ac5c][NMeGly(cPent)][NMeD]-Morpholide; lactam N-11),0.25,
CC[C@H](C)[C@@H]1NC(=O)[C@H](CC(C)C)N(C)C(=O)C[C@@H](C(=O)N2CCOCC2)N(C)C(=O)[C@H](C2CCCC2)N(C)C(=O)C2(CCCC2)NC(=O)[C@@H]2CCCN2C(=O)[C@H](CCc2ccc(C(F)(F)F)c(Cl)c2)NC(=O)CN(C)C(=O)[C@H](Cc2ccc(C)cc2)N(CCC(C)C)C(=O)CN(C)C(=O)CN(C)C1=O [PP0098] ([NMeL]I[Sar][Sar][X15][Sar][hPhe(3-Cl-4-CF3)]P[Ac5c][NMeGly(cPent)][NMeD]-Morpholide; lactam N-11),0.23,
CC[C@H](C)[C@@H]1NC(=O)[C@H](CC(C)C)N(C)C(=O)C[C@@H](C(=O)N2CCOCC2)N(C)C(=O)[C@H](C2CCCC2)N(C)C(=O)C2(CCCC2)NC(=O)[C@@H]2CCCN2C(=O)[C@H](CCc2ccc(C(F)(F)F)c(Cl)c2)NC(=O)CN(C)C(=O)[C@H](Cc2ccc(C)cc2)N(CC2CCC2)C(=O)[C@@H]2CCN2C(=O)[C@H](C)N(C)C1=O [PP0083] ([NMeL]I[NMeA][Aze][X42][Sar][hPhe(3-Cl-4-CF3)]P[Ac5c][NMeGly(cPent)][NMeD]-Morpholide; lactam N-11),1.1,
CCO[C@@H]1C[C@H]2C(=O)NC3(CC(C)(C)C3)C(=O)N(C)[C@@H](C(CC)CC)C(=O)N(C)[C@H](C(=O)N(C)C)CC(=O)N(C)[C@H]3CCCC/C=C/c4ccc(cc4)C[C@@H](C(=O)N(C)CC(=O)N[C@@H](CCc4cc(F)c(C(F)(F)F)c(F)c4)C(=O)N2C1)N1CC/C=C\C[C@@H](C1=O)N(C)C(=O)CN(C)C(=O)[C@H]([C@@H](C)CC)NC3=O [PP3044],,"Kd ([1]; SPR, Single Cycle Kinetics): 0.052 nM"
CCC[C@H]1C(=O)N[C@@H]([C@@H](C)CC)C(=O)N(C)CC(=O)N(C)[C@H]2C/C=C\CCN(C2=O)[C@@H](Cc2ccc(C)cc2)C(=O)N(C)CC(=O)N[C@@H](CCc2ccc(Cl)c(OC)c2)C(=O)N2C[C@H](OCC)C[C@H]2C(=O)NC2(CC(C)(C)C2)C(=O)N(C)[C@@H](C(CC)CC)C(=O)N(C)[C@H](C(=O)N(C)C)CC(=O)N1C [PP2791],1.9,"HRAS/KRAS (ratio of KD value with respect to GDP-bound HRAS wild-type protein to KD value with respect to KRAS) ([3]; SPR KD ratio HRAS/KRAS, class symbols): A (a compound having 10 or more and less than 20 is denoted as A)"
CCCN1C(=O)[C@@H]2CCN2C(=O)[C@@H]2[C@@H](C)CN2C(=O)[C@H]([C@@H](C)CC)NC(=O)[C@H](CC(C)C)N(C)C(=O)C[C@@H](C(=O)N2CCOCC2)N(C)C(=O)[C@H](C2CCCC2)N(C)C(=O)C2(CCCC2)NC(=O)[C@@H]2CCCN2C(=O)[C@H](CCc2ccc(C(F)(F)F)c(Cl)c2)NC(=O)CN(C)C(=O)[C@@H]1Cc1ccc(C(F)(F)F)cc1 [PP0279] ([NMeL]I[Aze(3S-Me)][Aze][NPrPhe(4-CF3)][Sar][hPhe(3-Cl-4-CF3)]P[Ac5c][NMeGly(cPent)][NMeD]-Morpholide; lactam N-11),0.36,
CC[C@H](C)[C@@H]1NC(=O)[C@H](CC(C)C)N(C)C(=O)C[C@@H](C(=O)N2CCOCC2)N(C)C(=O)[C@H](C2CCCC2)NC(=O)C2(CCCC2)NC(=O)[C@@H]2CCCN2C(=O)[C@H](CCc2cc(F)c(C(F)(F)F)c(F)c2)NC(=O)CN(C)C(=O)[C@H](Cc2ccc(C(F)(F)F)cc2)N2CCCCC[C@@H](C2=O)N(C)C(=O)CN(C)C1=O [PP0478],400,
CCO[C@@H]1C[C@H]2C(=O)NC3(CC(C)(C)C3)C(=O)N(C)[C@@H](C(CC)CC)C(=O)N(C)[C@H](C(=O)N3CCCCC3)CC(=O)N(C)[C@H]3CCC/C=C/c4ccc(cc4)C[C@@H](C(=O)N(C)CC(=O)N[C@@H](CCc4cc(F)c(C(F)(F)F)c(F)c4)C(=O)N2C1)N1CC/C=C\C[C@@H](C1=O)N(C)C(=O)CN(C)C(=O)[C@H]([C@@H](C)CC)NC3=O [PP2952],0.79,
CCO[C@@H]1C[C@H]2C(=O)NC3(CC(C)(C)C3)C(=O)N(C)[C@@H](C3CCCC3)C(=O)N(C)[C@H](C(=O)N(C)C)CC(=O)N(C)[C@H]3CCCCCCc4ccc(cc4)C[C@@H](C(=O)N(C)CC(=O)N[C@@H](CCc4ccc(C(F)(F)F)c(OC)c4)C(=O)N2C1)N1CC/C=C\C[C@@H](C1=O)N(C)C(=O)CN(C1CC1)C(=O)[C@H]([C@@H](C)CC)NC3=O [PP3070],,"Kd ([1]; SPR, Single Cycle Kinetics): 0.17 nM; HRAS/KRAS (ratio of KD value for HRAS to KD value for KRAS) [3, 5]: B (a compound having 3 or more and less than 10 is denoted as B)"
